Assay results: patent US20220088199A1, “METHOD FOR PROTECTING GLYCEROL ALKYL ETHERS FROM OXIDATION” (SACHEM, INC., priority 2016, published 2022)

Tests used:
[1] = test system: human reconstructed epidermis (SkinEthic model); assay: In vitro skin irritation study, SkinEthic model, OECD 439; assay type: cell-based; conditions: pure product applied 42 minutes, 42 hours incubation; MTT viability and IL1-α; FIG. 8
Procedure: As noted herein, the inventive compositions are intended for use in cosmetic and pharmaceutical compositions. One important criteria for such products is that there be no skin irritation, when the compositions are applied to the skin of the person using the cosmetic or pharmaceutical composition. To test the compositions of the present invention, a non-animal test is conducted, which is an in vitro skin irritation study of the compositions on human reconstructed epidermis known as the SkinEthic model, OECD 439. […] After the pure product has been applied to the epidermis for 42 minutes and they have been incubated for 42 hours post-treatment, cell viability is determined by measuring mitochondrial succinate dehydrogenase activity in living cells. […] A spectrophotometer is used to read the results after the crystals have been dissolved. The measured absorbances are proportional to the number of living cells. In addition, release of inflammation (IL1-α) mediators is measured by colorimeter if cell viability is over 50%. […] Cytotoxicity: absorbance is measured three times at 540 nm. The results are expressed as a viability percentage compared to a negative control: […]
IL1-α titration: IL1-α concentrations in the culture media are evaluated using the instructions on the titration kit and are expressed as pg/ml. […]

[2] = Stability testing at room temperature: formation of formaldehyde and peroxides (Example 1); assay type: physicochemical; conditions: zero time
Source text: The thus-prepared compositions are subjected to stability testing, under which formation of formaldehyde and peroxides and determined as indicators of stability, in which higher amounts of formaldehyde and/or peroxides are deemed to show lower stability of the mixture. […] This sample is obtained commercially from Schulke GmbH. The tests for all samples determine the formaldehyde and peroxide contents of the test sample when stored at room temperature (RT), for periods of 0, 2, 4, 6, 8, 10 and 12 months. The 0 month sample is the freshly prepared composition.

[3] = Stability testing of SASKINE50 blends at 50° C., analysed by GC (Example 2); conditions: for loss of SASKINE50 (3-[(2-ethylhexyl)oxy]-1,2-propanediol) assay on storage: one month, 725 ppm antioxidant in 99.6% pure SASKINE50, FIG. 3
Procedure: The blend is analyzed via gas chromatography (GC) prior to stability testing. Following the analysis result, the blend is placed under atmospheric pressure and under an inert gas into individual sample bottles as not to disturb the testing conditions during sampling. The test conditions are 50° C. for one month. […] These test conditions are considered to simulate a shelf-life of approximately one year at room temperature.
The samples are dissolved in isopropyl alcohol at a concentration of 10% for the GC analysis. The following GC conditions are used:
Column: • Material: fused silica WCOT • Length: 30 m • Internal diameter: 0.32 mm • Stationary phase: DB1701 • Film thickness: 1 μm • Gas regulation: Carrier gas: hydrogen • Make-up gas: helium • Temperatures: Detector: 300° C. • Injector: 275° C. • Start temperature: 115° C. • Warm up speed 1: 8° C./minute • End temperature: 210° C. • Warm up speed 2: 15° C./minute • End temperature: 275° C.
Detection: Type detector: FID

[4] = test system: microbial strain (bacteria, yeasts, molds); assay: Minimum inhibitory concentration (MIC) determination; assay type: cell-based; conditions: FIG. 7; compared to plain material and Sensiva
Procedure: As discussed in the background, the purpose of the glyceryl ether compounds such as SASKINE50™ and SASKINE80™ is as a preservative and antimicrobial, especially in cosmetics and pharmaceutical preparations. To test the SASKINE50™ and SASKINE80™, minimum inhibitory concentrations are determined for SASKINE50™ alone, SASKINE50™ with naringenin, SASKINE80™ alone, and SASKINE80™ with naringenin, and, for comparison, Sensiva® SC 50, which contains 3-[(2-ethylhexyl)oxy]-1,2-propanediol and synthetic alpha-tocopherol, which is commercially available from Schülke & Mayr Benelux B.V., 2032 HA-Haarlem, Netherlands. The determination of the minimal inhibitory concentration (MIC) is carried out according to the standard procedure described below.
The purpose of the MIC study is to find a minimum concentration of the test item which will enable to inhibit in vitro the growth of a microbial strain. The MIC characterizes the bacteriostatic or fungistatic effect of a product.
In the MIC test, the product is diluted according to a geometric progression of reason 2 over a range of at least 5 dilutions starting from the maximum concentration to be tested specified by the customer. In each tube of the dilution range, a cultured medium double concentered is included with the strains to be tested. […]

[5] = Stability testing of SASKINE80 blend at 50° C., analysed by GC (Example 3); assay type: physicochemical
Procedure: In this example, SACHEM's SASKINE80™ is used as basis for the stability testing of […] within the scope of the present invention, i.e., naringenin. A pre-defined blend containing SASKINE80™ and this anti-oxidant compound in accordance with the present invention are prepared, the blend containing 725 ppm of the naringenin in 99.6% pure SASKINE80™ (3-[(n-octyl)oxy]-1,2-propanediol). […] The test conditions are 50° C. for two weeks and four weeks.

| loss of SASKINE50 (3-[(2-ethylhexyl)oxy]-1,2-propanediol) assay on storage [3] | SMILES | other results |
| --- | --- | --- |
| significant loss | CCCCC(CC)COCC(O)CO (centres unmarked) [SASKINE50™, 3-[(2-ethylhexyl)oxy]-1,2-propanediol] | skin irritation classification [1]: irritant of category 1 or 2; peroxide present ([2]; Example 1, FIG. 1): measurable, non-zero amount; formaldehyde present ([2]; Example 1, FIG. 2): measurable, non-zero amount; increase in volatile degradation products (low boiling compounds) ([3]; 2 weeks and 4 weeks, 725 ppm antioxidant in SASKINE50, FIG. 4): significant amount of breakdown products |
|  | CCCCCCCCOCC(O)CO (centres unmarked) [SASKINE80™, 3-[(n-octyl)oxy]-1,2-propanediol] | minimum inhibitory concentration (anti-microbial growth) [4]: even better performance; increase in low boiling compounds ([5]; two and four weeks, FIG. 5b): notable increase; SASKINE80 assay decrease ([5]; two weeks and four weeks, FIG. 5a): about 0.40% |
| almost no loss | COc1ccc(-c2cc(=O)c3c(O)cc(O)cc3o2)cc1O [diosmetin] |  |
| performed less well | C[C@@H]1O[C@@H](O[C@H]2[C@H](Oc3cc(O)c4c(c3)O[C@H](c3ccc(O)cc3)CC4=O)O[C@H](CO)[C@@H](O)[C@@H]2O)[C@H](O)[C@H](O)[C@H]1O [naringin hydrate] |  |
| almost no loss | O.O=c1c(O)c(-c2ccc(O)cc2O)oc2cc(O)cc(O)c12 [norinhydrate] |  |
| almost no loss | COc1cc(O)c2c(=O)c(O)c(-c3ccc(O)c(O)c3)oc2c1 [rhamnetin] |  |

| SMILES | loss of SASKINE50 (3-[(2-ethylhexyl)oxy]-1,2-propanediol) assay on storage [3] | other results |
| --- | --- | --- |
| O=C1C[C@@H](c2ccc(O)cc2)Oc2cc(O)cc(O)c21 [naringenin] | almost no loss |  |
| O=c1c(O)c(-c2ccc(O)c(O)c2)oc2cc(O)cc(O)c12 [quercetin] | almost no loss |  |
